Active and inactive are the calls of the source.
How the values were obtained:
[1] = target: Mitotic checkpoint serine/threonine-protein kinase BUB1 (Homo sapiens, UniProt O43683)
Activin receptor type-1 = target: T1, Activin receptor type-1 (Homo sapiens, UniProt Q04771)
T1 sequence (Q04771 whole entry): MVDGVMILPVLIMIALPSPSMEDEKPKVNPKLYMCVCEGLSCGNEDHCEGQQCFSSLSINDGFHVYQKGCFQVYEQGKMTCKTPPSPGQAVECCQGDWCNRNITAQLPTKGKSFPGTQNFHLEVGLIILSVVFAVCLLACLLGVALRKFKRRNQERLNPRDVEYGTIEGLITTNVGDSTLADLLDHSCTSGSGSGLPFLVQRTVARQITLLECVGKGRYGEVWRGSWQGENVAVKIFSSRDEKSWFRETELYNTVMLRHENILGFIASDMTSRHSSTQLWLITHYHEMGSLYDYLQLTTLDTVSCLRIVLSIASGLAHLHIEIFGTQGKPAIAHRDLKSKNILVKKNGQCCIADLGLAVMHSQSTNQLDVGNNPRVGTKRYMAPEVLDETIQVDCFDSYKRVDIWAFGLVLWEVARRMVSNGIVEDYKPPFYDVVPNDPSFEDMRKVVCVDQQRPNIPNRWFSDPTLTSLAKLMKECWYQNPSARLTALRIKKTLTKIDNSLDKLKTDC

[2] = target: RAC-alpha serine/threonine-protein kinase (Homo sapiens, UniProt P31749)
Chain of RAC-alpha serine/threonine-protein kinase (P31749 whole entry): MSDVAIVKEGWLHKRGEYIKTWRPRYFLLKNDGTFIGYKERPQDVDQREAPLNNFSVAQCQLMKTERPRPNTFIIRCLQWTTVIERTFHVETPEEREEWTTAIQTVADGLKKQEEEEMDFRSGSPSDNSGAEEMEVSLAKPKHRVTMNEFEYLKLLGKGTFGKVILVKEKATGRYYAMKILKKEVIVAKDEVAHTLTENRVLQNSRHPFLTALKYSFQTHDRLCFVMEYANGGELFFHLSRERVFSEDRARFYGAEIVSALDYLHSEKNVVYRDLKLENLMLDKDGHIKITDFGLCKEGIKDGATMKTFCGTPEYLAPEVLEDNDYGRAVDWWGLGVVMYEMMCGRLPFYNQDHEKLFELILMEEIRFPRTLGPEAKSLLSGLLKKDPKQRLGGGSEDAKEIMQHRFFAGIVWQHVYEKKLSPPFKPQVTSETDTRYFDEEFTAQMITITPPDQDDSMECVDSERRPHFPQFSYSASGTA

[3] = target: T2, Glycogen phosphorylase, brain form (Homo sapiens, UniProt P11216)
T2 sequence (P11216 whole entry): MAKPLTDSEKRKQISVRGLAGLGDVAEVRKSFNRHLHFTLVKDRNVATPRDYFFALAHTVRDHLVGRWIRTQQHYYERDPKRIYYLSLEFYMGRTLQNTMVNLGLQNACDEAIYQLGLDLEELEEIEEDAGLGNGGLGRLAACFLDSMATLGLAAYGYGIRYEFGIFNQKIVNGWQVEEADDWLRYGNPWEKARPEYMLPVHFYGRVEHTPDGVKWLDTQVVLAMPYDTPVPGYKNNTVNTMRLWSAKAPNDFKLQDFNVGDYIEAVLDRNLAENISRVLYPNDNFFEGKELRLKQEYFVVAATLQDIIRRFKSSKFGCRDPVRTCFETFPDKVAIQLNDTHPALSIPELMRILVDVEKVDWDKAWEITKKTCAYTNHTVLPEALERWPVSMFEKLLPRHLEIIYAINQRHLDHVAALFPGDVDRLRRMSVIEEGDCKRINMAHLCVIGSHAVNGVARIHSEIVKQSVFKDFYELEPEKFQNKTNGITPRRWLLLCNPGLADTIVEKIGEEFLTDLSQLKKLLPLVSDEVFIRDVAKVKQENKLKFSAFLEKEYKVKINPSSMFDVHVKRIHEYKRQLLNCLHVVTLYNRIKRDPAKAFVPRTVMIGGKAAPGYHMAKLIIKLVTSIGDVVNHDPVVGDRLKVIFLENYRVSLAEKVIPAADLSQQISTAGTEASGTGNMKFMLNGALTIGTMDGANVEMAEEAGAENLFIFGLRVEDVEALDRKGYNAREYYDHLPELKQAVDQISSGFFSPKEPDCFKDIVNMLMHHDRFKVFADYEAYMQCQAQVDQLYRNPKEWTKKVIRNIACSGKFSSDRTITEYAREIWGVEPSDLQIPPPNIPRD

[4] = target: TRAF2 and NCK-interacting protein kinase (Homo sapiens, UniProt Q9UKE5)
Chain of TRAF2 and NCK-interacting protein kinase (Q9UKE5 whole entry): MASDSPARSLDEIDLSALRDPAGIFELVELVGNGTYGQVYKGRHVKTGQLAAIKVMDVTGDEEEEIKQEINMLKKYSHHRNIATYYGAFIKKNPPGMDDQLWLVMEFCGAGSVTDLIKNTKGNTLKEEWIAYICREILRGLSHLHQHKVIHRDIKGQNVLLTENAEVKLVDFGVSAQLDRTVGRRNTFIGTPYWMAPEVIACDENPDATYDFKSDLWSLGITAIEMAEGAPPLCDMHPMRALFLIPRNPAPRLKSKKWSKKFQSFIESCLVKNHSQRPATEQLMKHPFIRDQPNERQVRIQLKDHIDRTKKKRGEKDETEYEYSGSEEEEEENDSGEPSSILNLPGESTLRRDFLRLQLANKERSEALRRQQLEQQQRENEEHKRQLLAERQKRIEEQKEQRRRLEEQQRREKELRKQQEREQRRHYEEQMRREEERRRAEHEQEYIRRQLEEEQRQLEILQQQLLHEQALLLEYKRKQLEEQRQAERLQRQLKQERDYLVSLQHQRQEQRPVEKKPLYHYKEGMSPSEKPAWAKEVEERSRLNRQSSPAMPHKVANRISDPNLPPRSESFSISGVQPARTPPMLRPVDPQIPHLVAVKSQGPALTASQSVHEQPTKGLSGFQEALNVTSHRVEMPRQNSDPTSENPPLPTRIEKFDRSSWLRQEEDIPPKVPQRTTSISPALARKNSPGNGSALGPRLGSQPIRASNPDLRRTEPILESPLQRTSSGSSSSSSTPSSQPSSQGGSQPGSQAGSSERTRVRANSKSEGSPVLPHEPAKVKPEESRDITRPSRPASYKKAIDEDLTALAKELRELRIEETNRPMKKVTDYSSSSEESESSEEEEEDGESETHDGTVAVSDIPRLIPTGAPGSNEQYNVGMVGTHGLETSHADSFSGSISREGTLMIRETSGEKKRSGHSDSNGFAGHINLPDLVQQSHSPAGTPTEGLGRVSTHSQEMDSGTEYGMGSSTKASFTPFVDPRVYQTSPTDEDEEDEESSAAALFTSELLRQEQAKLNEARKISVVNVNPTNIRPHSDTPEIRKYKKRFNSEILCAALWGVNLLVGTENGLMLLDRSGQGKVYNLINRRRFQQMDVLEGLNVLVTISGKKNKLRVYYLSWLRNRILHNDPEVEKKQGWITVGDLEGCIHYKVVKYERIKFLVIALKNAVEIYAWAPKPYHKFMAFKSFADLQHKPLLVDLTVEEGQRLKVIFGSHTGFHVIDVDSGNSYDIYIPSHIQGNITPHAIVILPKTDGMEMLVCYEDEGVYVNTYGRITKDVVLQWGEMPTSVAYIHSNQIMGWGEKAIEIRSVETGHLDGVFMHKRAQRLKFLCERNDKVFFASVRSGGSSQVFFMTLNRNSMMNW

[5] = target: Inosine-5'-monophosphate dehydrogenase 2 (Homo sapiens, UniProt P12268)
[6] = target: T3, ATP-dependent RNA helicase DDX42 (Homo sapiens, UniProt Q86XP3)
T3 sequence (Q86XP3 whole entry): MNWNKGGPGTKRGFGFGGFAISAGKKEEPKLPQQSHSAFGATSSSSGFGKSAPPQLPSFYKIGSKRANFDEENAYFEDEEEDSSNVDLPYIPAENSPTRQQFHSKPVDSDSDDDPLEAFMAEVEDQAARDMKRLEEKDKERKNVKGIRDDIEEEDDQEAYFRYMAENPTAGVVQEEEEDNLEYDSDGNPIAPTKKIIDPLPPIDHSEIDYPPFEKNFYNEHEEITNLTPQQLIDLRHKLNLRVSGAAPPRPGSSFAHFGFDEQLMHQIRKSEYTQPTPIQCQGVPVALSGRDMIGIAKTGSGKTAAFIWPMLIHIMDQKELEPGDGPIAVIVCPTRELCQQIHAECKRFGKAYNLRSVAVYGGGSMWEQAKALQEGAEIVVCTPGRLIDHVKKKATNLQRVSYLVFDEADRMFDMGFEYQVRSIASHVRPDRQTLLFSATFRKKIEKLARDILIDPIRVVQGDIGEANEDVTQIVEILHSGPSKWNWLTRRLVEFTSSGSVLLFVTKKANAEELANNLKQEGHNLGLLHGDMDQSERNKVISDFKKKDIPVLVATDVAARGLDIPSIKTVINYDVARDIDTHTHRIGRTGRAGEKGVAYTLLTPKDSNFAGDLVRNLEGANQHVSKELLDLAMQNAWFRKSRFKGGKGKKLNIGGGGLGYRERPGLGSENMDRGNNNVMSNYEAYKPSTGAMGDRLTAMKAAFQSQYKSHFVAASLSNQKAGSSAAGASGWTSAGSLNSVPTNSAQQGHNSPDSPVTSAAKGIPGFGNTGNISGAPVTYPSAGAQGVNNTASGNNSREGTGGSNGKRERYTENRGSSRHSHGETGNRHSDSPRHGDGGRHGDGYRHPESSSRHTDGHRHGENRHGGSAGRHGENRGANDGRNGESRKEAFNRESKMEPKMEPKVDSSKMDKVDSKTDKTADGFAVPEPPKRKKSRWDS

[7] = target: T4, Serine/threonine-protein kinase ULK3 (Homo sapiens, UniProt Q6PHR2)
T4 sequence (Q6PHR2 whole entry): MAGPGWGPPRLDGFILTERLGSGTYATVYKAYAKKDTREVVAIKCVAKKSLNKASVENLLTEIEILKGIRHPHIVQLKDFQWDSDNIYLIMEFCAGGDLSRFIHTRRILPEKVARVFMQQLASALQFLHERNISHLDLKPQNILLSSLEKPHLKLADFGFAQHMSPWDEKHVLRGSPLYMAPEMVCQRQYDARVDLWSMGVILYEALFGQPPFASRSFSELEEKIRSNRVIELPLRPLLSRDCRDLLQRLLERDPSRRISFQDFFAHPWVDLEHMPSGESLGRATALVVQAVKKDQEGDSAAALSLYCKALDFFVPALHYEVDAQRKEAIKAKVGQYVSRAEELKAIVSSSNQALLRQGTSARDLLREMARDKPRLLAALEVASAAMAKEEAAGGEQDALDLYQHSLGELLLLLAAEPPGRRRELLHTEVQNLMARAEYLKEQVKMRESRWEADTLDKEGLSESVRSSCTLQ

Measured: Kd
Also: in the data inactive means no Kd found up to 30 µM.

Chain of Mitotic checkpoint serine/threonine-protein kinase BUB1 (O43683 whole entry): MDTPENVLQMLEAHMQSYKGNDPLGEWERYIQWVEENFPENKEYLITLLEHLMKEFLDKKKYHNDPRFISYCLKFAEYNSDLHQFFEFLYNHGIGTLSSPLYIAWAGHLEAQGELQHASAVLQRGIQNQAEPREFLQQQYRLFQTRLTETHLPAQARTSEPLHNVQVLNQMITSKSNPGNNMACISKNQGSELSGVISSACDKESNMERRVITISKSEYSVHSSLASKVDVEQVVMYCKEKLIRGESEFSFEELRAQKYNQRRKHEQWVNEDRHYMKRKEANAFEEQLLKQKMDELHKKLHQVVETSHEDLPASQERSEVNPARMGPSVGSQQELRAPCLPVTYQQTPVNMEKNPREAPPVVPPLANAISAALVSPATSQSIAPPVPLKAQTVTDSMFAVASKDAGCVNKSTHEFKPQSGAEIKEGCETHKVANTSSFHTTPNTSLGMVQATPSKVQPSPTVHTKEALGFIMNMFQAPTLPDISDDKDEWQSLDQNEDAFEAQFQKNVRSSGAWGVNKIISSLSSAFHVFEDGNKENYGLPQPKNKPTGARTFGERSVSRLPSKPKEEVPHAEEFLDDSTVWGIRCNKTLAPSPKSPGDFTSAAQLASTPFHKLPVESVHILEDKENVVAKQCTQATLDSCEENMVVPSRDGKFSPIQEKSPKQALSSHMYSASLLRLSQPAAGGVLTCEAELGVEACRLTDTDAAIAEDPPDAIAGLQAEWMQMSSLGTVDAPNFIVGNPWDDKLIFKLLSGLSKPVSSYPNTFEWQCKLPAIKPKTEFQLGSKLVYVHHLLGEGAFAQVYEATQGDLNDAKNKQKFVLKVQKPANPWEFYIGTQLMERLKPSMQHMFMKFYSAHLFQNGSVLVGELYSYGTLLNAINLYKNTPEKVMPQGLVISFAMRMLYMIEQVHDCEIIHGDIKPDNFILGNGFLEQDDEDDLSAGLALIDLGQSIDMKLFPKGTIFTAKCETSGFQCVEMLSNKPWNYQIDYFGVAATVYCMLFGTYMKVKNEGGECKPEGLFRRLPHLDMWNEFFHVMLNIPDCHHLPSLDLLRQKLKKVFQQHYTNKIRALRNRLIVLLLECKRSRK

CC(C)(O)CC(=O)NCCn1ccc2ncnc(Nc3ccc(Oc4cccc(C(F)(F)F)c4)c(Cl)c3)c21 [TAK-285]
inactive: [1] > 30 µM | Activin receptor type-1 > 30 µM | [2] > 30 µM | [3] > 30 µM | [4] > 30 µM | [5] > 30 µM | [6] > 30 µM | [7] > 30 µM

COc1cc2ncnc(Nc3ccc(O)cc3)c2cc1OC [WHI-P131]
inactive: [1] > 30 µM | Activin receptor type-1 > 30 µM | [2] > 30 µM | [3] > 30 µM | [4] > 30 µM | [5] > 30 µM | [6] > 30 µM | [7] > 30 µM

COc1cccc(Nc2ncnn3ccc(CN4CC[C@@H](N)[C@H](O)C4)c23)c1 [BMS-690514]
inactive: [1] > 30 µM | Activin receptor type-1 > 30 µM | [2] > 30 µM | [3] > 30 µM | [4] > 30 µM | [5] > 30 µM | [6] > 30 µM | [7] > 30 µM

S=C(NCc1ccc2c(c1)OCO2)N1CCN(c2ncnc3c2oc2ccccc23)CC1 [AMUVATINIB]
inactive: [1] > 30 µM | Activin receptor type-1 > 30 µM | [2] > 30 µM | [3] > 30 µM | [4] > 30 µM | [5] > 30 µM | [6] > 30 µM | [7] > 30 µM

Cc1ccc(C(=O)Nc2ccc(Oc3cc4cnn(C)c4cc3-c3cn[nH]c3)c(F)c2)c(=O)n1-c1ccc(F)cc1 [MERESTINIB]
inactive: [1] > 30 µM | Activin receptor type-1 > 30 µM | [2] > 30 µM | [3] > 30 µM | [4] > 30 µM | [5] > 30 µM | [6] > 30 µM | [7] > 30 µM

C=CC(=O)Nc1cc(Nc2nccc(-c3cn(C)c4ccccc34)n2)c(OC)cc1N(C)CCN(C)C [OSIMERTINIB]
inactive: [1] > 30 µM | Activin receptor type-1 > 30 µM | [2] > 30 µM | [3] > 30 µM | [4] > 30 µM | [5] > 30 µM | [6] > 30 µM | [7] > 30 µM

O=S(=O)(c1cccc2c(O)nccc12)N1CCCNCC1 [HYDROXYFASUDIL]
inactive: [1] > 30 µM | Activin receptor type-1 > 30 µM | [2] > 30 µM | [3] > 30 µM | [4] > 30 µM | [5] > 30 µM | [6] > 30 µM | [7] > 30 µM

From ChEMBL document CHEMBL3991601, “The target landscape of clinical kinase drugs” (Science, 2017)
